Experiments:
[1] = tested on: MelanoDerm (Mel-300-A) epidermal equivalents containing melanocytes; assay: Tissue viability of artificial skin model (CCK-8); assay type: cell-based, human; conditions: whole treatment period (14 days), rapamycin 2.5 μM, 6-CEPN 10 μM, 8-CEPQ 5 μM
Method: (§1) Epidermal equivalents containing melanocytes (Mel-300-A) were maintained according to the manufacturer's instructions. Mel-300-A tissue was cultured in EPI-100-NMM-113 medium for 14 days. Agents were dissolved in tissue culture medium and changed every other day. The test agents were either (1) rapamycin (2.5 μM), as the positive control in depigmentation, (2) 6-CEPN (10 μM), or (3) 8-CEPQ (5 μM). The concentration of rapamycin used was lower than 6-CEPN and 8-CEPQ, as rapamycin is toxic to cells at higher concentration. Pigmentation of these skin equivalents was compared against treatment of cells with a culture medium only (denoted as “vehicle”). Tissue viability was assessed on day 14 by CCK-8 assay as described in Example 1. On day 14, single tissues were harvested and photographed. The L* parameter was used to evaluate skin lightening or darkening. The lighter the skin, the greater the L* value. ΔL* value was measured by a Chroma Meter CR400 (Konica Minolta) for an evaluation of lightening as a function of time. Three tissues for each treatment were frozen for the Solvable Melanin assay (Bessou-Touya et al., “Chimeric human epidermal reconstructs to study the role of melanocytes and keratinocytes in pigmentation and photoprotection.” Journal of investigative dermatology 111(6):1103-1108 (1998)). Additional tissues were fixed by 10% formanin. For melanin staining in paraffin-embedded tissues, Fontana-Masson silver staining was used as previously detailed (Barbosa et al., “A simple and economical modification of the Masson-Fontana method for staining melanin granules and enterochromaffin cells.” Stain technology 59(4):193-196 (1984)).

[2] = tested on: MelanoDerm (Mel-300-A) epidermal equivalents containing melanocytes; assay: Depigmentation in artificial skin model: brightness and L* value; assay type: cell-based, human; conditions: 6-CEPN 10 μM, 8-CEPQ 5 μM
Method: as §1

[3] = tested on: MelanoDerm (Mel-300-A) epidermal equivalents containing melanocytes; assay: Solvable Melanin assay in artificial skin model; assay type: cell-based, human; conditions: 14 days, rapamycin 2.5 μM, 6-CEPN 10 μM, 8-CEPQ 5 μM
Method: Epidermal equivalents containing melanocytes (Mel-300-A) were maintained according to the manufacturer's instructions. Mel-300-A tissue was cultured in EPI-100-NMM-113 medium for 14 days. Agents were dissolved in tissue culture medium and changed every other day. The test agents were either (1) rapamycin (2.5 μM), as the positive control in depigmentation, (2) 6-CEPN (10 μM), or (3) 8-CEPQ (5 μM). The concentration of rapamycin used was lower than 6-CEPN and 8-CEPQ, as rapamycin is toxic to cells at higher concentration. Pigmentation of these skin equivalents was compared against treatment of cells with a culture medium only (denoted as “vehicle”). Tissue viability was assessed on day 14 by CCK-8 assay as described in Example 1. On day 14, single tissues were harvested and photographed. The L* parameter was used to evaluate skin lightening or darkening. The lighter the skin, the greater the L* value. ΔL* value was measured by a Chroma Meter CR400 (Konica Minolta) for an evaluation of lightening as a function of time. Three tissues for each treatment were frozen for the Solvable Melanin assay (Bessou-Touya et al., “Chimeric human epidermal reconstructs to study the role of melanocytes and keratinocytes in pigmentation and photoprotection.” Journal of investigative dermatology 111(6):1103-1108 (1998)). Additional tissues were fixed by 10% formanin. […]

[4] = tested on: melan-a cells; assay: Melanosome autophagy by fluorescence microscopy; assay type: cell-based, murine; conditions: α-MSH, rapamycin 0.5 μM 24 hrs, 6-CEPN 10 μM, 8-CEPQ 5 μM 72 hrs
Method: Melan-a cells (1.5×10^5 cells/well) were seeded on coverslips in 6-well palte. The cells were treated with (1) α-MSH (1 μM) alone for 24 hrs, (2) α-MSH (1 μM) plus rapamycin (0.5 μM) for 24 hrs, (3) α-MSH (1 μM) plus 6-CEPN (10 μM), or (3) α-MSH (1 μM) plus 8-CEPQ (5 μM) for 72 hrs. Culture medium was removed carefully after the cells reached 50%˜70% level of confluence. Cells were stained by microscopy dual detection reagents (autophagy detection kit, Abcam) for 30 mins at 37° C. The stained cells were analyzed by wide-field fluorescence microscopy (60× magnification). Standard FITC filter and DAPI filter were set to image the autophagic signal and the nuclear signal, respectively.

[5] = target: T1, tyrosinase (Mus musculus, UniProt P11344); assay: Cellular tyrosinase activity assay (L-DOPA oxidation in cell lysates); assay type: cell-based, murine; conditions: melan-a cells, α-MSH, 72 hrs; 6-CEPN 10 or 20 μM, 8-CEPQ 2.5 or 5 μM
T1 construct: endogenous in cells; host or cells: melan-a cells
T1 sequence (P11344 19-533): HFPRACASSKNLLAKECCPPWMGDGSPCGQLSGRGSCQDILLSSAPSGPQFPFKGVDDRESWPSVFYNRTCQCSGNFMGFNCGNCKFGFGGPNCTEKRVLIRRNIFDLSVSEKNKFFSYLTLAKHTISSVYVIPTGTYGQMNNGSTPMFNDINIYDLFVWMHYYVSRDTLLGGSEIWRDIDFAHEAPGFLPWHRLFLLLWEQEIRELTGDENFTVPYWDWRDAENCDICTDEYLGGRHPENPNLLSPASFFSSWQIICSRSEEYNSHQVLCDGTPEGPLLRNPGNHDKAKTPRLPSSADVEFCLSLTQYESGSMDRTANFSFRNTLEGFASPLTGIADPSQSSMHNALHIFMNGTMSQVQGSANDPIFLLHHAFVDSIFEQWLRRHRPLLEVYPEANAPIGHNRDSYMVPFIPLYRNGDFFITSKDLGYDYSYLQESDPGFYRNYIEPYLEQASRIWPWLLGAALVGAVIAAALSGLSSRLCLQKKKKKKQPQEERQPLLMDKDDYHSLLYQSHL
Method: Cellular tyrosinase activity was determined by measuring the oxidation of L-3,4-dihydroxyphenylalanine (L-DOPA) to dopachrome in cell lysates. Melan-a cells (1.5×10^5 cells/well) were plated in 1 mL of culture medium in a 24-well multidishes for at least 24 hrs prior to use. The cells were treated with α-MSH (1 μM) alone or with α-MSH plus different concentrations of testing agents for 72 hrs. The cells were washed with cold PBS and lysed in 900 μL of PBS with 1% Triton X-100. After being freeze-thawed at −80° C. for 30 min followed by 25° C. for 30 min, 100 μL of 10 mM L-DOPA was then added to each well. Following incubation at 37° C. for 1 hr, the absorbance of the agents was measured at 490 nm using Victor X4 Multilabel Plate Reader (PerkinElmer, Mass., USA).

[6] = tested on: MelanoDerm (Mel-300-A) epidermal equivalents containing melanocytes; assay: Fontana-Masson silver staining of artificial skin model; assay type: cell-based, human; conditions: day 14, rapamycin 2.5 μM, 6-CEPN 10 μM
Method: as §1

Compound: O=c1c(O)c(-c2ccc(O)c(O)c2)oc2c(/C=C/c3ccccc3)c(O)cc(O)c12 [8-CEPQ, 8-C-(E-phenylethenyl)-quercetin]
- cytotoxicity (tissue viability) [1]: without significant cytotoxicity
- brightness of the tissues (visual examination) ([2]; 14 days, rapamycin 2.5 μM): increased the brightness of the tissues
- L* value vs negative control ([2]; day 14, rapamycin 2.5 μM): increased the L* value
- amount of melanin in human skin equivalents [3]: significantly inhibited the amount of melanin
- melanosome autophagy [4]: induced melanosome autophagy
- tyrosinase activity [5]: significant inhibition on tyrosinase activity in a dose-dependent manner

Compound: CO[C@H]1C[C@@H]2CC[C@@H](C)[C@@](O)(O2)C(=O)C(=O)N2CCCC[C@H]2C(=O)O[C@H]([C@H](C)C[C@@H]2CC[C@@H](O)[C@H](OC)C2)CC(=O)[C@H](C)/C=C(\C)[C@@H](O)[C@@H](OC)C(=O)[C@H](C)C[C@H](C)/C=C/C=C/C=C/1C [rapamycin, reference compound]
- cytotoxicity (tissue viability) [1]: without significant cytotoxicity
- thickness of basal layer of tissue [6]: thinner than 6-CEPN-treated or non-treated control groups

From US10973748B2, “Compositions and methods for lightening skin and reducing hyperpigmentation” (Versitech Limited, priority 2016, dated 2021)
